This experiment addresses T1, human GluN1/GluN2B NMDA receptors (Homo sapiens, UniProt Q13224).
T1 construct: expressed in transfected cells
Briefly: Cell-based calcium flux (FLIPR) assay on cloned human NR1/NR2B ion channels expressed in mammalian cells (standard and HTS buffer variants).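 Note: stable Tet-On inducible cell line, Ca2+ influx triggered by glutamate at about EC40 plus 10 µM glycine, fluorescent dye read-out over 5 min, normalized to control wells.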

Setting [1] is: standard assay buffer (0.5 mM MgCl2 dye loading; 137 mM NaCl, 4 mM KCl assay buffer), human GluN1/GluN2B cells, read-out: NR2B IC50 (μM) standard assay.
The mark [2] stands for this setting: standard assay buffer (0.5 mM MgCl2 in dye loading buffer; 137 mM NaCl, 4 mM KCl in assay buffer), human GluN1/GluN2B, read-out: NR2B IC50 (μM) standard assay.
The mark [3] stands for this setting: HTS assay buffer (1.5 mM MgCl2 in dye loading buffer; 150 mM NaCl, 3 mM KCl in assay buffer), human GluN1/GluN2B, read-out: NR2B IC50 (μM) HTS assay.
[4] abbreviates: HTS assay buffer (1.5 mM MgCl2 dye loading; 150 mM NaCl, 3 mM KCl assay buffer), human GluN1/GluN2B cells, read-out: NR2B IC50 (μM) HTS assay.

Our source for the IC50 values is US11759455B2, “Substituted 1H-imidazo[4,5-b]pyridin-2(3H)-ones and their use as GLUN2B receptor modulators” (JANSSEN PHARMACEUTICA NV, priority 2016, dated 2023).

Like-named read-outs stand apart in the source and are kept apart here.

T1 sequence (Q13224 27-1484, other chains not shown): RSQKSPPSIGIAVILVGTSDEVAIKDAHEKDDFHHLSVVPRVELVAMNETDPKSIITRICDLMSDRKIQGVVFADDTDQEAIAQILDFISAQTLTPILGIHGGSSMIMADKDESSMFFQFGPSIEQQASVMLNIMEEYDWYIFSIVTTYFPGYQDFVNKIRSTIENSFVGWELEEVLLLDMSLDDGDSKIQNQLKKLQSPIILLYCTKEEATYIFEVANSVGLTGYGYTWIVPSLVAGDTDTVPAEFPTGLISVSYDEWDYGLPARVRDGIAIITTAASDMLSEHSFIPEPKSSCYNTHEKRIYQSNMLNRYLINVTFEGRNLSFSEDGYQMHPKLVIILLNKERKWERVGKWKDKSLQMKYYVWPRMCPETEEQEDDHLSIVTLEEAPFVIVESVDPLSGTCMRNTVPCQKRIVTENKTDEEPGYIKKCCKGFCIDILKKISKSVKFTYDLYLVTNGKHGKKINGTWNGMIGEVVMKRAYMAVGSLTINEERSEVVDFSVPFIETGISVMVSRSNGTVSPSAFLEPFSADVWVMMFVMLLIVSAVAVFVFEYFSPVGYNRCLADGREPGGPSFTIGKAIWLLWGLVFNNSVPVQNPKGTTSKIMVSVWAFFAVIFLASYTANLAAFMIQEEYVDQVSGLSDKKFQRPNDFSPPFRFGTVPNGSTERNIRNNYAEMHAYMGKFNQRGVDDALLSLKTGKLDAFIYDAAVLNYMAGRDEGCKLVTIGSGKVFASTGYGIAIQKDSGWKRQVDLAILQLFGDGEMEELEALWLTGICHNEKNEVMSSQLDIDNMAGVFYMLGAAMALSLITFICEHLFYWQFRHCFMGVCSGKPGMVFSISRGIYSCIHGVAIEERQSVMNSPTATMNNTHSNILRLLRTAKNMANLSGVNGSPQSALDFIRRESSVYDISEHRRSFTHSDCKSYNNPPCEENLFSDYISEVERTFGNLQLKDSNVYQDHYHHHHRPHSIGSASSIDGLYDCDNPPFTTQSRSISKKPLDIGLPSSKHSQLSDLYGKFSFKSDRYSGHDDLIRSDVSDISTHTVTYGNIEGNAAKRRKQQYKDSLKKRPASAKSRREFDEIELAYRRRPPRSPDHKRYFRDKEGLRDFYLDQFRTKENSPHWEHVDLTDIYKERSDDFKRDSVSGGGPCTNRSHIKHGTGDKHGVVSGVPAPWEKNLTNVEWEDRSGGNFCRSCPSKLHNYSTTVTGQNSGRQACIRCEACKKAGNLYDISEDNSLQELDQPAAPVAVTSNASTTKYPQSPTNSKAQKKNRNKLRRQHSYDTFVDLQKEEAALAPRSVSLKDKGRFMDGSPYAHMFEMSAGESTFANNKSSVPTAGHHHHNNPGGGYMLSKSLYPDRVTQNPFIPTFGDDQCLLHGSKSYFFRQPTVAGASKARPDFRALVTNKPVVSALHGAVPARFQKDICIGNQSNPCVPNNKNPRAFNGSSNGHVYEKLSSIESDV

As usually defined, the IC50 is the concentration that inhibits the measured activity by half. For `Cc1noc(Cn2c(=O)[nH]c3ncc(-c4ccc(F)cc4)cc32)n1` [Example 140, 6-(4-Fluorophenyl)-1-[(3-methyl-1,2,4-oxadiazol-5-yl)methyl]-3H-imidazo[4,5-b]pyridin-2-one], under setting [1], the IC50 is 0.105 µM.
As for `Cc1cc(-c2cnc3c(c2)n(Cc2cncc(Cl)c2)c(=O)n3C)sc1Cl` [Example 372, 6-(5-Chloro-4-methyl-2-thienyl)-1-[(5-chloro-3-pyridyl)methyl]-3-methyl-imidazo[4,5-b]pyridin-2-one], under setting [2], the IC50 was 6.64 µM.
With `O=C(Cn1c(=O)[nH]c2ncc(-c3cccc(C(F)(F)F)c3)cc21)NC1CC(F)(F)C1` [Example 195, N-(3,3-Difluorocyclobutyl)-2-[2-oxo-6-[3-(trifluoromethyl)phenyl]-3H-imidazo[4,5-b]pyridin-1-yl]acetamide], under setting [1], the IC50 was 0.007 µM.
As to `Cn1c(=O)n(CC(=O)N2CC(F)C2)c2cc(-c3ccc(F)c(OC(F)F)c3)cnc21` [Example 589, 6-[3-(Difluoromethoxy)-4-fluoro-phenyl]-1-[2-(3-fluoroazetidin-1-yl)-2-oxo-ethyl]-3-methyl-imidazo[4,5-b]pyridin-2-one], the IC50 under setting [2] was found to be 0.028 µM.
On the same count and under the same terms, then `Cn1c(=O)n(CC(=O)N2CCC2)c2cc(-c3cccc(C(F)(F)F)c3)cnc21` [Example 408, 1-[2-(Azetidin-1-yl)-2-oxo-ethyl]-3-methyl-6-[3-(trifluoromethyl)phenyl]imidazo[4,5-b]pyridin-2-one], with 0.042 µM.
As for `Cc1nnc(Cn2c(=O)[nH]c3ncc(-c4ccc(F)cc4)cc32)o1` [Example 13, 6-(4-Fluorophenyl)-1-[(5-methyl-1,3,4-oxadiazol-2-yl)methyl]-3H-imidazo[4,5-b]pyridin-2-one], the IC50 under setting [1] was 0.076 µM.
For `Cn1c(=O)n(Cc2cccnn2)c2cc(-c3ccc(Cl)c(C(F)(F)F)c3)cnc21` [Example 384, 6-[4-Chloro-3-(trifluoromethyl)phenyl]-3-methyl-1-(pyridazin-3-ylmethyl)imidazo[4,5-b]pyridin-2-one], under setting [2], the IC50 was 0.206 µM.
Same read-out and setting: then `COCCNC(=O)Cn1c(=O)[nH]c2ncc(-c3cc(F)cc(F)c3)cc21` [Example 610, 2-[6-(3,5-Difluorophenyl)-2-oxo-3H-imidazo[4,5-b]pyridin-1-yl]-N-(2-methoxyethyl)acetamide], with 1.79 µM.
As to `Cc1cc(Cn2c(=O)[nH]c3ncc(-c4ccccc4C)cc32)no1` [Example 126, 1-[(5-Methylisoxazol-3-yl)methyl]-6-(o-tolyl)-3H-imidazo[4,5-b]pyridin-2-one], under setting [1], the IC50 worked out at 0.038 µM.
Consider `Cc1nnc(Cn2c(=O)n(C)c3ncc(-c4ccc(C(F)F)s4)cc32)o1` [Example 560, 6-[5-(Difluoromethyl)-2-thienyl]-3-methyl-1-[(5-methyl-1,3,4-oxadiazol-2-yl)methyl]imidazo[4,5-b]pyridin-2-one], for which the IC50 under setting [2] is 0.304 µM.
Turning to `Cc1cccc(-c2cnc3c(c2)n(Cc2cncc(Cl)c2)c(=O)n3C)c1` [Example 374, 1-[(5-Chloro-3-pyridyl)methyl]-3-methyl-6-(m-tolyl)imidazo[4,5-b]pyridin-2-one], under setting [2], the IC50 is 0.416 µM.
For `CCOc1cccc(-c2cnc3[nH]c(=O)n(CC(=O)c4cccs4)c3c2)c1` [Example 463, 6-(3-Ethoxyphenyl)-1-[2-oxo-2-(2-thienyl)ethyl]-3H-imidazo[4,5-b]pyridin-2-one], the IC50 under setting [3] is 0.36 µM.
For `CN(C)C(=O)Cn1c(=O)n(C)c2ncc(-c3cccc(C(F)(F)F)c3F)cc21` [Example 424, 2-[6-[2-Fluoro-3-(trifluoromethyl)phenyl]-3-methyl-2-oxo-imidazo[4,5-b]pyridin-1-yl]-N,N-dimethyl-acetamide], the IC50 under setting [2] stood at 0.028 µM.
For `Cc1cc(-c2cnc3[nH]c(=O)n(CC(=O)N(C)C)c3c2)sc1Cl` [Example 321, 2-[6-(5-Chloro-4-methyl-2-thienyl)-2-oxo-3H-imidazo[4,5-b]pyridin-1-yl]-N,N-dimethyl-acetamide], the IC50 under setting [2] was 0.014 µM.
In the case of `Cc1c(-c2cnc3[nH]c(=O)n(CC(=O)N4CCC4)c3c2)cccc1C(F)(F)F` [Example 329, 1-[2-(Azetidin-1-yl)-2-oxo-ethyl]-6-[2-methyl-3-(trifluoromethyl)phenyl]-3H-imidazo[4,5-b]pyridin-2-one], the half-maximal inhibitory concentration (IC50) under setting [2] came to 0.75 µM.
Take `Cc1cc(C)cc(-c2cnc3[nH]c(=O)n(Cc4cc(C)on4)c3c2)c1` [Example 516, 6-(3,5-Dimethylphenyl)-1-[(5-methylisoxazol-3-yl)methyl]-3H-imidazo[4,5-b]pyridin-2-one]: the IC50 under setting [2] came out at 0.491 µM.
As for `CC(C)C(=O)Cn1c(=O)[nH]c2ncc(-c3cccc(C(F)(F)F)c3)cc21` [Example 241, 1-(3-Methyl-2-oxo-butyl)-6-[3-(trifluoromethyl)phenyl]-3H-imidazo[4,5-b]pyridin-2-one], the IC50 under setting [1] worked out at 0.093 µM.
As for `O=C(Cn1c(=O)[nH]c2ncc(-c3ccc(C(F)(F)F)s3)cc21)N1CCC1` [Example 323, 1-[2-(azetidin-1-yl)-2-oxo-ethyl]-6-[5-(trifluoromethyl)-2-thienyl]-3H-imidazo[4,5-b]pyridin-2-one], the IC50 under setting [2] worked out at 0.041 µM.
For the compound `Cc1noc(Cn2c(=O)n(C)c3ncc(-c4cccc(C(F)(F)F)c4)cc32)n1` [Example 76, 3-Methyl-1-[(3-methyl-1,2,4-oxadiazol-5-yl)methyl]-6-[3-(trifluoromethyl)phenyl]imidazo[4,5-b]pyridin-2-one], the IC50 under setting [1] was determined as 0.218 µM.
Turning to `Cc1csc(-c2cnc3[nH]c(=O)n(Cc4cc(C)on4)c3c2)c1` [Example 125, 1-[(5-Methylisoxazol-3-yl)methyl]-6-(4-methyl-2-thienyl)-3H-imidazo[4,5-b]pyridin-2-one], the concentration for half-maximal inhibition (IC50) under setting [1] stood at 0.082 µM.
Take `Cc1cc(F)ccc1-c1cnc2[nH]c(=O)n(CC(=O)N(C)C3CC3)c2c1` [Example 40, N-Cyclopropyl-2-[6-(4-fluoro-2-methyl-phenyl)-2-oxo-3H-imidazo[4,5-b]pyridin-1-yl]-N-methyl-acetamide]: the IC50 under setting [4] came out at 1.82 µM.
For the compound `Cc1cc(-c2cnc3c(c2)n(Cc2cncnc2)c(=O)n3C)ccc1F` [Example 48, 6-(4-Fluoro-3-methyl-phenyl)-3-methyl-1-(pyrimidin-5-ylmethyl)imidazo[4,5-b]pyridin-2-one], under setting [1], the IC50 came out at 0.072 µM.
For `CCOc1cccc(-c2cnc3[nH]c(=O)n(CC(=O)NC4CC4)c3c2)c1` [Example 449, N-Cyclopropyl-2-[6-(3-ethoxyphenyl)-2-oxo-3H-imidazo[4,5-b]pyridin-1-yl]acetamide], under setting [3], the IC50 turned out to be 0.638 µM.
For the compound `Cn1cc(Cn2c(=O)n(C)c3ncc(-c4ccc(C(F)(F)F)s4)cc32)nn1` [Example 566, 3-Methyl-1-[(1-methyltriazol-4-yl)methyl]-6-[5-(trifluoromethyl)-2-thienyl]imidazo[4,5-b]pyridin-2-one], the IC50 under setting [2] came to 0.349 µM.
For the compound `CCC(=O)Cn1c(=O)[nH]c2ncc(-c3cccc(C)c3)cc21` [Example 332, 6-(m-Tolyl)-1-(2-oxobutyl)-3H-imidazo[4,5-b]pyridin-2-one], the IC50 under setting [2] came to 0.036 µM.
As to `COc1ccc(-c2cnc3[nH]c(=O)n(CC(=O)NC4CC4)c3c2)c(Cl)c1` [Example 37, 2-[6-(2-Chloro-4-methoxy-phenyl)-2-oxo-3H-imidazo[4,5-b]pyridin-1-yl]-N-cyclopropyl-acetamide], the IC50 under setting [4] came out at 1.38 µM.
For the compound `Cn1c(=O)n(Cc2cncc(F)c2)c2cc(-c3cccc(F)c3F)cnc21` [Example 346, 6-(2,3-Difluorophenyl)-1-[(5-fluoro-3-pyridyl)methyl]-3-methyl-imidazo[4,5-b]pyridin-2-one], the IC50 under setting [2] was determined as 0.225 µM.
With `Cc1cncc(Cn2c(=O)[nH]c3ncc(-c4cc(F)c(F)c(F)c4)cc32)c1` [Example 308, 1-[(5-Methyl-3-pyridyl)methyl]-6-(3,4,5-trifluorophenyl)-3H-imidazo[4,5-b]pyridin-2-one], the IC50 under setting [1] was determined as 0.03 µM.
As for `Cn1c(=O)n(CC(=O)N2CC(F)(F)C2)c2cc(-c3cccc(C(F)(F)F)c3)cnc21` [Example 138, 1-[2-(3,3-difluoroazetidin-1-yl)-2-oxo-ethyl]-3-methyl-6-[3-(trifluoromethyl)phenyl]imidazo[4,5-b]pyridin-2-one], the IC50 under setting [1] turned out to be 0.089 µM.
Still for that read-out and setting: then `O=c1[nH]c2ncc(-c3ccccc3)cc2n1CCN1CC(F)C1` [Example 188, 1-[2-(3-Fluoroazetidin-1-yl)ethyl]-6-phenyl-3H-imidazo[4,5-b]pyridin-2-one], with 1.44 µM.
Turning to `Cc1cccc(-c2cnc3c(c2)n(CC(=O)N2CC(F)C2)c(=O)n3C)c1F` [Example 405, 1-[2-(3-Fluoroazetidin-1-yl)-2-oxo-ethyl]-6-(2-fluoro-3-methyl-phenyl)-3-methyl-imidazo[4,5-b]pyridin-2-one], the concentration for half-maximal inhibition (IC50) under setting [2] was 0.022 µM.
On to `Cn1c(=O)n(Cc2csnn2)c2cc(-c3ccc(C(F)(F)F)s3)cnc21` [Example 568, 3-Methyl-1-(thiadiazol-4-ylmethyl)-6-[5-(trifluoromethyl)-2-thienyl]imidazo[4,5-b]pyridin-2-one], for which the IC50 under setting [2] was 0.305 µM.
`Cn1c(=O)n(Cc2cccnn2)c2cc(-c3ccc(C(F)(F)F)s3)cnc21` [Example 84, 3-Methyl-1-(pyridazin-3-ylmethyl)-6-[5-(trifluoromethyl)-2-thienyl]imidazo[4,5-b]pyridin-2-one]: the IC50 under setting [1] worked out at 0.03 µM.
Consider `COc1cc(Cn2c(=O)[nH]c3ncc(-c4c(F)cccc4OC)cc32)cc(OC)c1` [Example 509, 1-[(3,5-Dimethoxyphenyl)methyl]-6-(2-fluoro-6-methoxy-phenyl)-3H-imidazo[4,5-b]pyridin-2-one], for which the IC50 under setting [3] worked out at 0.884 µM.
As for `O=c1[nH]c2ncc(-c3cccc(OC(F)F)c3)cc2n1Cc1cncc(F)c1` [Example 304, 6-[3-(Difluoromethoxy)phenyl]-1-[(5-fluoro-3-pyridyl)methyl]-3H-imidazo[4,5-b]pyridin-2-one], under setting [1], the IC50 worked out at 0.021 µM.
